Measured values from PubChem BioAssay (NCI).
Where “and” joins values, the source holds several entries; their conditions need not be identical. Identical values can stand only once.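 48-hour exposure; five concentrations; linearly interpolated endpoints. At the GI50, growth is halved. At the TGI there is no net growth.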

How the values were obtained:
Test in all cases: NCI-60 cell line screen, 48 h
[1] = test system: M14 melanoma
[2] = test system: OVCAR-3 ovarian
[3] = test system: TK-10 renal
[4] = test system: SK-MEL-28 melanoma
[5] = test system: RPMI-8226 leukemia
[6] = test system: UACC-257 melanoma
[7] = test system: SF-268 CNS
[8] = test system: HOP-92 NSCLC
[9] = test system: MDA-MB-231 breast
[10] = test system: PC-3 prostate

Compound	TGI [1]	TGI [2]	TGI [3]	TGI [4]	TGI [5]	TGI [6]	TGI [7]	TGI [8]	GI50 [1]	GI50 [9]	TGI [9]	GI50 [2]	GI50 [10]	TGI [10]	GI50 [3]	GI50 [4]	GI50 [5]	GI50 [6]	GI50 [7]	GI50 [8]
CCOC(=O)/C(=C\c1ccc(OCc2ccccc2)c(OC)c1)C(=O)c1ccccc1	30.5 µM	58.1 µM	61 µM	30.4 µM	86.5 µM	> 10 µM														
COC(=O)/C=C(C)/C=C/c1cc(C(C)=O)c(C)o1	> 100 µM	> 100 µM			> 100 µM	> 100 µM	> 100 µM	> 100 µM												
O=C1/C(=C/c2ccc(O)c([N+](=O)[O-])c2)CCC/C1=C\c1ccc(O)c([N+](=O)[O-])c1	31.8 µM and 29.7 µM	17.1 µM and > 100 µM	50 µM and > 100 µM	20.3 µM and 45 µM	50 µM and 32.6 µM	44.3 µM and 37.7 µM	19.9 µM		14.6 µM	16.4 µM	50 µM and 39.3 µM	2.54 µM	9.12 µM	50 µM and 22.8 µM	38.8 µM	19.9 µM	10 µM	15.5 µM		
C[C@]12CC[C@H](O)CC1=CC[C@@H]1C2CC[C@]2(C)c3nn(-c4ccc(F)cc4)nc3CC12 (stereo partly specified)	> 100 µM	> 100 µM	> 100 µM	> 100 µM		> 100 µM	> 100 µM	> 100 µM			> 100 µM			> 100 µM						
COc1ccc2c([nH]c3cc(O)c(C)cc32)c1C=O	> 25 µM	> 25 µM	> 25 µM	> 25 µM	> 25 µM		> 25 µM	> 25 µM												
O=C1CCCCCCCCCCC(=O)C2CCOCCOCCOCCC1Cc1cccc(n1)C2	> 100 µM	> 100 µM	> 100 µM	> 100 µM	> 100 µM	> 100 µM	> 100 µM													
CC1(CO)OC1COCc1ccccc1 (stereo unspecified)	> 100 µM	> 100 µM			> 100 µM	> 100 µM	> 100 µM	> 100 µM												
Nc1nc(Nc2ccc3c(c2)CC[C@@H](N2CCCC2)CC3)nn1-c1cc2c(nn1)-c1ccccc1CCC2	3 µM	3.36 µM	2.97 µM	3.27 µM		3.66 µM	3.26 µM		1.43 µM	1.82 µM	3.55 µM	1.74 µM			1.35 µM	1.77 µM		1.89 µM	1.44 µM	
C=CC[C@H]1C[C@@]2(C)OC[C@H](C(C)C)N2C1=O		> 100 µM	> 100 µM	> 100 µM	> 100 µM	> 100 µM	> 100 µM	> 100 µM												
N/N=C(\CC1OC(=O)c2ccccc21)c1ccco1 (stereo unspecified)	> 100 µM	> 100 µM	> 100 µM	> 100 µM		> 100 µM	> 100 µM	> 100 µM												
COc1ccc(C2S/C(=C\c3cc(OC)c(OC)c(OC)c3)C(=O)N2NC(=O)Cc2ccccc2)cc1 (stereo unspecified)	> 100 µM		> 100 µM	> 100 µM	> 100 µM	> 100 µM	> 100 µM	> 100 µM												
Fc1ccc(Oc2nccc(-c3c(-c4ccc(F)cc4)ncn3C3CCNCC3)n2)cc1	> 25 µM	> 25 µM	> 25 µM	> 25 µM	> 25 µM		> 25 µM		> 25 µM		> 9.34 µM	> 25 µM	> 25 µM	> 25 µM	> 19.9 µM	> 25 µM	> 25 µM		> 25 µM	
CCOc1cc2c(cnc3c4cc(OC)c(OC)cc4ccc23)cc1OC	> 100 µM	> 100 µM	> 100 µM	> 100 µM	> 100 µM	> 100 µM	> 100 µM													
CC(=O)OCSc1ncnc2c1ncn2CN1CCOCC1	> 100 µM	> 100 µM	> 100 µM	> 100 µM	> 100 µM	> 100 µM	> 100 µM	> 100 µM												
CCCCCNC(=O)[C@@H]1CCCN2C(=O)CC[C@H](NC(=O)[C@H](Cc3ccc(OP(=O)(O)O)cc3)NC(C)=O)C(=O)N12	> 25 µM	> 25 µM	> 25 µM	> 25 µM	> 25 µM	> 25 µM	> 25 µM		> 25 µM	> 25 µM	> 25 µM	> 25 µM	> 25 µM	> 25 µM	> 25 µM	> 25 µM	> 25 µM	> 25 µM	> 25 µM	
COc1ccc2c(c1)nc(N)c1c3cc(OC)c(OC)cc3cn21			20.8 µM	19.9 µM	12.8 µM	27.2 µM	17.5 µM	23.9 µM		0.345 µM	17.4 µM			16 µM	3.48 µM		0.0968 µM	11.4 µM		5.09 µM
c1nc2cscc2c2cscc12	> 100 µM	> 100 µM	> 100 µM	> 100 µM	> 100 µM	> 100 µM	> 100 µM	> 100 µM												
O=[N+]([O-])c1ccc(Sc2c3ccccc3nc3ccccc23)cc1	> 100 µM	> 100 µM		> 100 µM	> 100 µM	> 100 µM	> 100 µM													
C=C1C(=O)O[C@@H]2C1C[C@@H](O)/C(C)=C/C/C=C(\C)CCC[C@H](C)[C@H]2OC(C)=O (stereo partly specified)	44.1 µM	42.7 µM	52.7 µM	> 100 µM	48.6 µM	> 100 µM	> 100 µM		19.4 µM	24.3 µM	49.6 µM	21.4 µM	21.4 µM	51.3 µM	24.2 µM	34.5 µM	24.9 µM	36.4 µM	33.9 µM	
FC(F)(F)c1cccc(COCCN2CCN(Cc3cccc(C(F)(F)F)c3)CC2)c1	94.6 µM	42.9 µM	27.4 µM	34.6 µM		35.5 µM	30.3 µM				44.7 µM			21.7 µM						
CC(C)=CC(=O)Oc1ccc([N+](=O)[O-])cc1	> 100 µM	> 100 µM	> 100 µM		> 100 µM	> 100 µM	> 100 µM	> 100 µM												
